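Compound exposure: 48 hours, 5 concentrations, 96-well plates. Abbreviation: GI50, concentration required for 50% inhibition of growth. TGI is the concentration that stops growth completely.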
Columns and labels:
Assay in all cases: DTP human tumour cell line panel, 48 h
OVCAR-8 ovarian = system: OVCAR-8 ovarian
ACHN renal = system: ACHN renal
MALME-3M melanoma = system: MALME-3M melanoma
UO-31 renal = system: UO-31 renal
HL-60(TB) leukemia = system: HL-60(TB) leukemia
CAKI-1 renal = system: CAKI-1 renal
DU-145 prostate = system: DU-145 prostate
T-47D breast = system: T-47D breast
PC-3 prostate = system: PC-3 prostate
A498 renal = system: A498 renal

`Brc1ccc(C[N+]23CN4CN(CN(C4)C2)C3)cc1` was tested, and the TGI (OVCAR-8 ovarian) was 99.7 µM, the TGI (ACHN renal) was greater than 100 µM and the TGI (MALME-3M melanoma) was 71.5 µM. The TGI (UO-31 renal) was greater than 100 µM and the TGI (HL-60(TB) leukemia) was 58.2 µM.
Compound `COc1cc(O)c2c(=O)c(OC)c(-c3ccc(OC)c(OC)c3)oc2c1.[Sn]` has a TGI (CAKI-1 renal) greater than 100 µM, a GI50 (DU-145 prostate) greater than 100 µM and a TGI (DU-145 prostate) greater than 100 µM. It also gave a GI50 (OVCAR-8 ovarian) greater than 100 µM, a TGI (OVCAR-8 ovarian) greater than 100 µM and a GI50 (ACHN renal) greater than 100 µM. For the same compound, the TGI (ACHN renal) was greater than 100 µM, the GI50 (MALME-3M melanoma) was greater than 100 µM and the TGI (MALME-3M melanoma) was greater than 100 µM. The TGI (UO-31 renal) was greater than 100 µM, the GI50 (T-47D breast) was 7.91 µM and the TGI (T-47D breast) was greater than 100 µM. The GI50 (PC-3 prostate) was 68.5 µM, the TGI (PC-3 prostate) was greater than 100 µM and the TGI (HL-60(TB) leukemia) was greater than 100 µM.
Work on `Cc1cc(N)c2cc(NC(=O)Nc3ccc4nc(C)cc(N)c4c3)ccc2n1` yielded a TGI (CAKI-1 renal) greater than 100 µM, a TGI (DU-145 prostate) greater than 100 µM and a TGI (A498 renal) greater than 100 µM. It also gave a TGI (OVCAR-8 ovarian) greater than 100 µM, a TGI (ACHN renal) greater than 100 µM and a TGI (MALME-3M melanoma) greater than 100 µM. For the same compound, the TGI (UO-31 renal) was greater than 100 µM, the TGI (T-47D breast) was greater than 100 µM and the TGI (PC-3 prostate) was greater than 100 µM.
In the case of `CCOC(=O)C1=C(O)c2ccc(OC)cc2C(=O)C1=O`, the TGI (CAKI-1 renal) is reported as greater than 100 µM, the TGI (A498 renal) is reported as greater than 100 µM and the TGI (OVCAR-8 ovarian) is reported as greater than 100 µM. It also gave a TGI (ACHN renal) greater than 100 µM, a TGI (MALME-3M melanoma) greater than 100 µM and a TGI (UO-31 renal) greater than 100 µM. For the same compound, the TGI (HL-60(TB) leukemia) was greater than 100 µM.
For `COc1cc(C(=O)N(C(=O)N2CCCCC2)c2ccccc2)cc(OC)c1OC`, the TGI (CAKI-1 renal) was greater than 100 µM, the TGI (DU-145 prostate) was greater than 100 µM and the TGI (A498 renal) was greater than 100 µM. For the same compound, the TGI (OVCAR-8 ovarian) was greater than 100 µM, the TGI (ACHN renal) was greater than 100 µM and the TGI (UO-31 renal) was greater than 100 µM. For the same compound, the TGI (T-47D breast) was greater than 100 µM and the TGI (PC-3 prostate) was greater than 100 µM.
Compound `O=C(c1cccnc1)N1N=C(c2ccc3c(c2)OCO3)CC1(O)c1cc(F)c(Cl)cc1Cl` (centres undefined) has a TGI (CAKI-1 renal) greater than 100 µM, a TGI (DU-145 prostate) of 59.8 µM and a TGI (OVCAR-8 ovarian) of 38.4 µM. It also gave a TGI (ACHN renal) of 38.9 µM, a TGI (MALME-3M melanoma) of 54.1 µM and a TGI (UO-31 renal) of 41.3 µM. The TGI (T-47D breast) was 43.2 µM, the TGI (PC-3 prostate) was greater than 100 µM and the TGI (HL-60(TB) leukemia) was 52.2 µM.
`N#Cc1c(O)c(C=O)c(=O)n2c1[nH]c1ccccc12` showed a TGI (CAKI-1 renal) greater than 100 µM, a TGI (DU-145 prostate) greater than 100 µM and a TGI (A498 renal) greater than 100 µM. The TGI (OVCAR-8 ovarian) was greater than 100 µM, the TGI (ACHN renal) was greater than 100 µM and the TGI (MALME-3M melanoma) was greater than 100 µM. It also gave a TGI (UO-31 renal) greater than 100 µM and a TGI (PC-3 prostate) greater than 100 µM.
Compound `CC(=O)Nc1ccc(C(=O)n2[nH]c(C)c(/C=C3\C(=O)C=Cc4ccccc43)c2=O)cc1` has a TGI (CAKI-1 renal) greater than 100 µM, a TGI (OVCAR-8 ovarian) greater than 100 µM and a TGI (ACHN renal) greater than 100 µM. The TGI (MALME-3M melanoma) was 59.3 µM, the TGI (UO-31 renal) was greater than 100 µM and the TGI (HL-60(TB) leukemia) was greater than 100 µM.
`CCOC(=O)C(NC(=O)c1ccccc1)(Nc1ccc(S(=O)(=O)Nc2ccc(OC)nn2)cc1)C(F)(F)F` (centres undefined) gave a TGI (CAKI-1 renal) greater than 100 µM, a TGI (DU-145 prostate) greater than 100 µM and a TGI (OVCAR-8 ovarian) greater than 100 µM. The TGI (ACHN renal) was greater than 100 µM, the TGI (MALME-3M melanoma) was greater than 100 µM and the TGI (UO-31 renal) was greater than 100 µM. The TGI (T-47D breast) was greater than 100 µM, the TGI (PC-3 prostate) was greater than 100 µM and the TGI (HL-60(TB) leukemia) was greater than 100 µM.
`CCOC(=O)[C@H](CO)Nc1c(O)c2c(c(O)c1Cl)C(=O)C=CC2=O` gave a TGI (CAKI-1 renal) greater than 10 µM, a TGI (DU-145 prostate) greater than 10 µM and a TGI (OVCAR-8 ovarian) greater than 10 µM. It also gave a TGI (ACHN renal) greater than 10 µM, a TGI (MALME-3M melanoma) greater than 10 µM and a TGI (T-47D breast) greater than 10 µM. The TGI (PC-3 prostate) was greater than 10 µM and the TGI (HL-60(TB) leukemia) was greater than 10 µM.
With `O=C1NC(Cc2ccccc2)C(=O)N2CCCC12` (centres undefined) the TGI (CAKI-1 renal) was greater than 100 µM, the TGI (A498 renal) was greater than 100 µM and the TGI (OVCAR-8 ovarian) was greater than 100 µM. The TGI (ACHN renal) was greater than 100 µM, the TGI (MALME-3M melanoma) was greater than 100 µM and the TGI (UO-31 renal) was greater than 100 µM. It also gave a TGI (HL-60(TB) leukemia) greater than 100 µM.
`O=C(NCCC1CN(S(=O)(=O)C(F)(F)F)c2ccccc21)OCc1ccccc1` (centres undefined) gave a TGI (CAKI-1 renal) greater than 100 µM, a TGI (DU-145 prostate) greater than 100 µM and a TGI (A498 renal) greater than 100 µM. For the same compound, the TGI (OVCAR-8 ovarian) was greater than 100 µM, the TGI (ACHN renal) was greater than 100 µM and the TGI (MALME-3M melanoma) was greater than 100 µM. For the same compound, the TGI (UO-31 renal) was greater than 100 µM and the TGI (PC-3 prostate) was greater than 100 µM.
